Key:
[1] = Solubility in water; assay type: physicochemical; settings: water
Text: Le composé est une poudre blanche, insoluble dans l'éther de pétrole, soluble dans l'éther, l'acé-tate d'éthyle et les alcools. Sa solubilité dans l'eau est inférieure à 0,1%.

[2] = tested on: souris; test: Pretoxicity, i.p., 3 mice per dose; assay type: in vivo
Procedure: (§1) Le composé CRL 41 334, en suspension dans une solution de gomme arabique, a été administré par voie intrapéritonéale sous un volume de 20 ml/kg chez la souris (mâle, NMRI, C.E.R. Janvier) et de 5 ml/kg chez le rat (mâle, CD₁; SPRAGUE DAWLEY, Charles River).
I - PRETOXICITE ( 3 souris par dose)
(§2) Le CRL 41 055, en suspension dans une solution de gomme arabique, a été administré par voie intrapéritonéale sous un volume de 20 ml/kg chez la souris (mâle, NMRI, Evic Ceba).
Prétoxicite (3 souris par dose)
(§3) Le CRL 40 956, en suspension dans une solution de gomme arabique a été administré par voie intrapéritonéale sous un volume de 20 ml/kg chez la souris (mâle, NMRI, Evic Céba) et de 5 ml/kg chez le rat (mâle, CD₁, Sprague Dawley, Charles River).
Prétoxicité ( 3 souris par dose)

[3] = tested on: souris; test: Global behaviour and reactivities, mouse, i.p.; assay type: in vivo
Procedure: as §1
(§4) Des lots de 3 animaux sont observés avant, puis 15 mn, 30 mn, 1h, 2h, 3h et 24 heures après l'administration du composé CRL 41 334.
as §2, §3
(§5) Des lots de 3 animaux sont observés avant, puis 15 mn, 30 mn, 1 h, 2 h, 3 h et 24 heures après l'administration de CRL 40 956.

[4] = tested on: rat; test: Global behaviour and reactivities, rat, i.p.; assay type: in vivo
Procedure: as §1, §4, §3, §5

[5] = tested on: rat; test: Search for stereotyped movements, rat; assay type: in vivo
Text: Des lots de 6 rats reçoivent une injection du composé CRL 41 334 ou d'amphétamine, puis sont immédiatement placés dans des boîtes de petites dimensions (20 x 10 x 10 cm) où leur comportement stéréotypeé est coté de 0 à 3 jusqu'à extinction de l'effet.

[6] = tested on: rat; test: Interaction with amphetamine, rat; assay type: in vivo; settings: rat, 16, mais surtout 64 mg/kg, amphétamine 2 mg/kg i.p.
Procedure: L'amphétamine (2 mg/kg) est injectée par Voie intrapéritonéale à des lots de 6 rats, une demi-heure après l'administration du composé CRL 41 334.

[7] = tested on: souris; test: Traction test; assay type: in vivo; settings: half an hour after administration
Text: (§6) Le test est pratiqué sur des lots de 10 souris, une demi-heure après l'administration du composé CRL 41 334.

[8] = tested on: souris; test: Electroshock; assay type: in vivo; settings: 128 mg/kg
Text: as §6

[9] = tested on: souris; test: Spontaneous motility (actimeter); assay type: in vivo
Procedure: Après avoir reçu le composé CRL 41 334, les souris sont placées en actimètre où leur motilité est enregistrée pendant 30 minutes.
Une demi-heure après avoir reçu le CRL 41 055, les souris (6 par dose, 12 témoins) sont placées en actimètre où leur motilité est enregistrée pendant 30 minutes.
Une demi-heure après avoir reçu le CRL 40 956, les souris (6 par dose, 12 témoins) sont placées en actimètre ou leur motilité est enregistrée pendant 30 minutes.

[10] = tested on: souris; test: Intergroup aggressiveness; assay type: in vivo; settings: 32 et 128 mg/kg
Procedure: Après avoir séjourné pendant 3 semaines dans chacune des moitiés d'une cage séparées par une cloison opaque, des groupes de 3 souris reçoivent le composé CRL 41 334. Une demi-heure plus tard, les deux groupes d'une même cage sont réunis par retrait de la cloison et on note le nombre de combats qui surviennent en 10 minutes. Le test est pratiqué pour moitié sur les souris habituelles (NMRI, C.E.R. Janvier) et pour moitié sur des souris NMRI (Iffa Credo).
Après avoir séjourné pendant 3 semaines dans chacune des moitiés d'une cage séparée par une cloison opaque, des groupes de 3 souris reçoivent le CRL 40 956. Une demi-heure plus tard, les deux groupes d'une même cage sont réunis par retrait de la cloison et on note le nombre de combats qui surviennent en 10 minutes.

[11] = tested on: souris; test: Motility reduced by habituation to the enclosure; assay type: in vivo; settings: dès la dose de 2 mg/kg
Procedure: Après 18 heures de séjour dans les actimè-tres, les souris (6 par dose, 12 témoins) reçoivent le composé CRL 41 334. Elles sont aussitôt replacées dans leurs enceintes respectives et, une demi-heure plus tard, on enregistre leur motilité pendant 30 minutes.
Après 18 heures de séjour dans les actimètres, les souris (6 par dose, 12 émoins) reçoivent le CRL 41 055. Elles sontaussitôt replacées dans leurs enceintes respectives et, une demi-heure plus tard, on enregistre leur motilité pendant 30 minutes.

[12] = tested on: souris; test: Motility reduced by hypoxic aggression; assay type: in vivo
Procedure: Une demi-heure après avoir reçu le composé CRL 41 334, les souris (10 par dose, 20 témoins) sont soumises à une anoxie hypobare aigüe (dépression de 60 mmHg en 90 secondes, détente de 45 secondes), puis elles sont placées en actimètre où leur motilité est enregistrèe pendant 10 minutes.

[13] = tested on: souris; test: Interaction with barbital; assay type: in vivo; settings: souris, 8, 32 et 128mg/kg, barbital 220 mg/kg i.p.
Procedure: Une demi-heure après l'administration du composé CRL 41 334, des lots de 20 souris reçoivent une injection intrapéritonéale de barbital ([…]).
Une demi-heure après l'administration du CRL 40 956 des lots de 10 souris reçoivent une injection intrapéritonéale de 200 mg/kg de barbital.

[14] = tested on: homme; test: Therapeutic use in humans; assay type: in vivo; settings: homme, voie orale, 4 fois 50 mg par jour

NC(=O)CSC(c1ccc(F)cc1)c1ccc(F)cc1 [CRL 41 334, 2-(4,4ʹ-difluorobenzhydrylthio)acétamide]
solubility [1]: < 1000 µg/mL
symptômes ([2]; 128 mg/kg i.p.): sédation, puis excitation 2 heures après
symptômes ([2]; 256 mg/kg i.p.): sédation suivie d'excitation 2 heures après l'injection
convulsions ([2]; 256 mg/kg i.p., à 15 minutes): 3/3
symptômes ([2]; 512 mg/kg i.p.): démarche titubante
convulsions ([2]; 512 mg/kg i.p., pendant les 10 premières minutes): 3/3
mortalité ([2]; 512 mg/kg i.p., 1/3 en 15 minutes et 2/3 en 24 heures): 3/3
comportement et réactivités ([3]; souris, 128 mg/kg i.p.): sédation pendant 30 minutes
Hypothermie ([3]; souris, 128 mg/kg i.p., à 30 minutes, durée 1 heure): -4,1 °
comportement et réactivités ([3]; souris, 2, 8 et 32 mg/kg i.p.): pas de modifications nettes du comportement et des réactivités
comportement et réactivités ([4]; rat, 64 mg/kg i.p.): sédation pendant 15 minutes
diamètre pupillaire ([4]; rat, 64 mg/kg i.p., à 1 heure): mydriase très modérée et brève
comportement, réactivités, variation du diamètre pupillaire et de la température rectale ([4]; rat, 1, 4 et 16 mg/kg i.p.): comparables à ceux du lot témoin
durée des stéréotypies ([5]; 128 mg/kg): > 420 min
stéréotypies atteignent leur maximum ([5]; 128 mg/kg): 120 to 150 min
intensité des stéréotypies ([5]; 64 et 128 mg/kg, compared with amphétamine): comparable à celle obtenue respectivement avec 1 et 2 mg
stéréotypies amphétaminiques [6]: potentialise les stéréotypies amphétaminiques
incapacité motrice [7]: ne provoque pas d'incapacité motrice majeure
effets convulsivants de l'électrochoc [8]: s'oppose faiblement aux effets convulsivants
effets létaux de l'électrochoc [8]: sans modifier les effets létaux
motilité spontanée ([9]; souris, 128 mg/kg, 30 minutes avant passage dans l'actimètre): cet effet n'apparaît plus
motilité spontanée ([9]; souris, 8, mais surtout 32 et 128 mg/kg, 2 heures avant passage dans l'actimètre): augmentation de la motilité spontanée
motilité spontanée ([9]; souris, 32 et 64 mg/kg, 30 minutes avant passage dans l'actimètre): augmentation de la motilité
nombre de combats [10]: diminue le nombre de combats
activité motrice chez la souris habituée à son enceinte [11]: reprise nette de l'activité motrice
récupération motrice après anoxie hypobare ([12]; 32 et 128 mg/kg): amélioration est importante
récupération motrice après anoxie hypobare ([12]; dès la dose de 2mg/kg): amélioration de la récupération
durée du sommeil barbiturique [13]: diminution importante de la durée du sommeil barbiturique
traitement des dépressions des brûlés [14]: bons résultats

— patent EP0258134A1, “Therapeutical compositions containing benzhydryl thiomethane derivatives” (LABORATOIRE L. LAFON, priority 1986, dated 1988)
